According to patent US12054498B2, “Heteroaromatic macrocyclic ether chemotherapeutic agents” (Nuvalent, Inc., priority 2020, dated 2024):

What was measured:
ROS1-wt = molecular target: T1, ROS1-wt (Homo sapiens, UniProt P08922); assay: Biochemical kinase assay, ROS1-wt kinase domain; settings: apparent inhibitory constant, Morrison equation; ATP 2 mM in substrate solution; read-out: ROS1-wt Ki^app
T1 construct: purchased Carna 08-163
Procedure, shortened: (§1)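 Compounds, as 100-fold DMSO stocks, were dispensed first, then substrate mix was added (ATP 2 mM, AQT0101 26 μM, in 50 mM HEPES pH 7.5/10 mM MgCl2). Reactions ran at 30 °C with fluorescence logged every 2 min over 120 min. Apparent inhibition constants came from fitting rates to Morrison's tight-binding equation.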

Ba/F3 cells TPM3-TRKA = molecular target: T2, Ba/F3 cells TPM3-TRKA (Homo sapiens, UniProt P04629); assay: Ba/F3 cell proliferation assay, TPM3-TRKA; assay type: cell-based; settings: 72 hours, CellTiter-Glo, read-out: TPM3-NTRK1-wt IC50
T2 construct: host or cells: Ba/F3 (RIKEN), retroviral pMSCV-puro; the other entry of the earlier key: TPM3 (P06753, Tropomyosin alpha-3 chain)
T2 sequence (P04629 510-796 limits assumed): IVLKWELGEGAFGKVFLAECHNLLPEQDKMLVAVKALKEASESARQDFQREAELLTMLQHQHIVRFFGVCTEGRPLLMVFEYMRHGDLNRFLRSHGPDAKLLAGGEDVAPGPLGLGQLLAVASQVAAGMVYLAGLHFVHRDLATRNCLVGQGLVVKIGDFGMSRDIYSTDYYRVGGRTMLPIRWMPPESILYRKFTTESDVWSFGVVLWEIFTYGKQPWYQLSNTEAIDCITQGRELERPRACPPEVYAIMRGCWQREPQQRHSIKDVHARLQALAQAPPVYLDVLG
Procedure, shortened: (§2)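 Proliferation of fusion-driven Ba/F3 monoclones (grown without IL-3, puromycin 0.8 μg/mL) is followed over 72 hours of treatment with a 3-fold compound dilution series. ATP content is read by CellTiter-Glo luminescence, and IC50 is derived by four-parameter logistic fitting of percent inhibition.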

TRKA-wt = molecular target: T3, TRKA-wt (Homo sapiens, UniProt P04629); assay: Biochemical kinase assay, TRKA-wt kinase domain; settings: apparent inhibitory constant, Morrison equation; ATP 2 mM in substrate solution; read-out: TRKA-wt Ki^app
T3 construct: or TRKA-wt (1 nM, BPS Bio, 40280) kinase domains in buffer; purchased BPS Bio 40280
T3 sequence (P04629 510-781 limits assumed): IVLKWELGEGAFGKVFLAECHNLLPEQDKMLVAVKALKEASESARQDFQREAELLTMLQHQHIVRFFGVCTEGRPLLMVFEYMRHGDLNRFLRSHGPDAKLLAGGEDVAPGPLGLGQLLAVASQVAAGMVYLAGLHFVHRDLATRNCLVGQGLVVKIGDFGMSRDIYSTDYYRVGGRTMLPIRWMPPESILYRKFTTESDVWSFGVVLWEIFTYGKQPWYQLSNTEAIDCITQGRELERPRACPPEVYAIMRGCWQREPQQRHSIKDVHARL
Procedure, shortened: (§3)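 Apparent Ki values come from fitting initial reaction rates against inhibitor concentration to the Morrison equation. Rates were taken from the linear phase of fluorogenic substrate phosphorylation (AQT0101 for ALK and ROS1, AQT0104 for TRKA; 26 μM in substrate solution with 2 mM ATP), monitored at 485 nm over 120 min at 30° C.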

[1] = molecular target: T4, Ba/F3 cells CD74-ROS1 wild-type (wt) (Homo sapiens, UniProt P08922); assay: Ba/F3 cell proliferation assay, CD74-ROS1 wild-type; assay type: cell-based; settings: 72 hours, CellTiter-Glo
T4 construct: fusion of the C-terminus of ROS1 with the N-terminus of various partner proteins; host or cells: Ba/F3 (RIKEN), retroviral pMSCV-puro; the other entry of the earlier key: CD74 (P04233, HLA class II histocompatibility antigen gamma chain)
T4 sequence (P08922 1883-2347 limits assumed): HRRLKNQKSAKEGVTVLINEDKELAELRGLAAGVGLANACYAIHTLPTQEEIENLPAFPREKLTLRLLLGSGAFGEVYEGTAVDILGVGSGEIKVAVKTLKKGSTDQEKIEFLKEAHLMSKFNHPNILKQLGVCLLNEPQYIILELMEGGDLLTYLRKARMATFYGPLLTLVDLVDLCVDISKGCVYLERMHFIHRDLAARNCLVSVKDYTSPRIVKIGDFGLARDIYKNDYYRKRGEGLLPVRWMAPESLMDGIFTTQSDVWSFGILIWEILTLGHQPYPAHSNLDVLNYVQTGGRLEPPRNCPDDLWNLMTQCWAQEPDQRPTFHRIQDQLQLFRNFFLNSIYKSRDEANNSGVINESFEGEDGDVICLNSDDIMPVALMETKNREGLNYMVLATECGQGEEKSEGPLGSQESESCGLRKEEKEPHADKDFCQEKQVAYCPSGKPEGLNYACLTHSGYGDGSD
Procedure, shortened: (§4)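 Cells seeded 1 day, then treated with 3-fold compound dilutions for 72 h; viability by CellTiter-Glo luminescence. IC50 from percent inhibition by four-parameter logistic fit.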

ROS1-G2032R = molecular target: T5, ROS1-G2032R (Homo sapiens, UniProt P08922, G2032R); assay: Biochemical kinase assay, ROS1-G2032R kinase domain; settings: apparent inhibitory constant, Morrison equation; ATP 2 mM in substrate solution; read-out: ROS1-G2032R Ki^app
T5 construct: purchased SignalChem R14-12BG
T5 sequence (P08922 1945-2222 G2032R limits assumed): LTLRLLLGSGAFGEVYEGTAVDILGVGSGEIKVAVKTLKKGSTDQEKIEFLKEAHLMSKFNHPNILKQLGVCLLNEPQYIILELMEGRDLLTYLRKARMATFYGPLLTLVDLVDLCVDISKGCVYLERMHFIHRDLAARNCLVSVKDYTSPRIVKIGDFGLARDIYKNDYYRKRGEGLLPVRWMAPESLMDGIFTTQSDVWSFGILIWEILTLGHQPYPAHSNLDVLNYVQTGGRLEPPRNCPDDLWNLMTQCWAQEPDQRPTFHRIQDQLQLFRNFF
Procedure, shortened: as §1

ALK L1196M/G1202R = molecular target: T6, ALK L1196M/G1202R (Homo sapiens, UniProt Q9UM73, G1202R/L1196M); assay: Biochemical kinase assay, ALK L1196M/G1202R kinase domain; settings: apparent inhibitory constant, Morrison equation; ATP 2 mM in substrate solution; read-out: ALK-L1196M-G1202R Ki^app
T6 construct: purchased SignalChem A19-12NG
T6 sequence (Q9UM73 1116-1392 L1196M/G1202R limits assumed): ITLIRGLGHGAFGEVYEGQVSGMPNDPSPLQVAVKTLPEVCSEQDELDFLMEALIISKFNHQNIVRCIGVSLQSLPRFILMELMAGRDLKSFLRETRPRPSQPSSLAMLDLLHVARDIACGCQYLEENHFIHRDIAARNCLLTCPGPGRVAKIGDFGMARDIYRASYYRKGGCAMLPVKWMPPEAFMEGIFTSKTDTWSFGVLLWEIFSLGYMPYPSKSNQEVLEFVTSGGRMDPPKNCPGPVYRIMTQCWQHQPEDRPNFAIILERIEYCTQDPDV
Procedure, shortened: as §3

[2] = molecular target: T7, Ba/F3 cells EML4-ALK L1196M/G1202R (variant 1) (Homo sapiens, UniProt Q9UM73, G1202R/L1196M); assay: Ba/F3 cell proliferation assay, EML4-ALK L1196M/G1202R (variant 1); assay type: cell-based; settings: 72 hours, CellTiter-Glo
T7 construct: echinoderm microtubule-associated protein-like 4 (EML4) gene and the ALK tyrosine kinase domain; host or cells: Ba/F3 (RIKEN), retroviral pMSCV-puro; the other entry of the earlier key: EML4 (Q9HC35, Echinoderm microtubule-associated protein-like 4)
T7 sequence (Q9UM73 with tags, fused parts or gaps L1196M/G1202R): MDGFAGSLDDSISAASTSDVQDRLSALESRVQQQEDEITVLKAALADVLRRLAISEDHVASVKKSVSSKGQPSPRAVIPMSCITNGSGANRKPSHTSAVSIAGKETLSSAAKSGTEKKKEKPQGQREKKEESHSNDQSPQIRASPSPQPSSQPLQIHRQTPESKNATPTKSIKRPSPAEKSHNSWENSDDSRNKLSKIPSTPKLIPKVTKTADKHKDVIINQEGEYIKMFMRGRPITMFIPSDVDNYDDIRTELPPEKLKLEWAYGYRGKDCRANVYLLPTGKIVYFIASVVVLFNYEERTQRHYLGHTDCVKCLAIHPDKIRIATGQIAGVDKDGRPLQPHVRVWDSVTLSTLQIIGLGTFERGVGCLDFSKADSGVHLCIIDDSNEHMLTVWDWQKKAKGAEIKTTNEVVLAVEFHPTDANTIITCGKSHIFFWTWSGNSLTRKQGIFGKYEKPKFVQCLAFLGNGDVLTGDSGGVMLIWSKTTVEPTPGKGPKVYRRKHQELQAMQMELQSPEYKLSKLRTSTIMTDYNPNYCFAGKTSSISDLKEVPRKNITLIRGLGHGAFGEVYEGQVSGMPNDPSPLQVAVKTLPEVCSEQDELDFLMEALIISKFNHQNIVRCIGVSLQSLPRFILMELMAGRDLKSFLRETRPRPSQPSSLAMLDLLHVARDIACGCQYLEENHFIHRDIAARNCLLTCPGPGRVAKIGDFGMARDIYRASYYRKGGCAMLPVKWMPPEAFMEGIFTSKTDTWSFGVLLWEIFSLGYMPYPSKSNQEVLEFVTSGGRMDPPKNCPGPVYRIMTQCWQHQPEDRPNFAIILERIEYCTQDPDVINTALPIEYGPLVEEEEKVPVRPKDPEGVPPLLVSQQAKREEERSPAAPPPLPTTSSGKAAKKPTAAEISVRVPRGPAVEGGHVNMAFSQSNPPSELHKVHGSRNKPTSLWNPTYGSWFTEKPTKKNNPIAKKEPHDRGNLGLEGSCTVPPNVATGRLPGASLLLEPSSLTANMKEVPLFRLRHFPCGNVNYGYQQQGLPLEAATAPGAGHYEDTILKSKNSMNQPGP
Procedure, shortened: as §2

ALK-wt = molecular target: T8, ALK-wt (Homo sapiens, UniProt Q9UM73); assay: Biochemical kinase assay, ALK-wt kinase domain; settings: apparent inhibitory constant, Morrison equation; ATP 2 mM in substrate solution; read-out: ALK-wt Ki^app
T8 construct: purchased Carna 08-518
T8 sequence (Q9UM73 1116-1392 limits assumed): as the sequence (Q9UM73 1116-1392 L1196M/G1202R limits assumed) above, with M81L, R87G counted along it
Procedure, shortened: as §3

[3] = test system: TPM3-NTRK1-wt IC50 / primary target IC50 (e.g. CD74-ROS1-wt); assay: TRKA selectivity in Ba/F3 cells (TRKA potency divided by primary target potency); assay type: cell-based; settings: for TPM3-NTRK1-wt/CD74-ROS1-G2032R selectivity ratio: TRKA potency / CD74-ROS1-G2032R potency; for TPM3-NTRK1-wt/CD74-ROS1-wt selectivity ratio: TRKA potency / CD74-ROS1-wt potency; for TPM3-NTRK1-wt/EML4-ALK-L1196M-G1202R selectivity ratio: TRKA potency / EML4-ALK-L1196M-G1202R potency; for TPM3-NTRK1-wt/EML4-ALK-wt selectivity ratio: TRKA potency / EML4-ALK-wt potency
Protocol: TRKA selectivity was calculated by dividing a compound's TRKA potency by its primary target potency (e.g. TPM3-NTRK1-wt IC50/CD74-ROS1-wt IC50). Compound selectivity can be interpreted by binning ratio values: bin A for very high selectivity, ratio >30-fold; bin B for high selectivity, ratio >10-fold; bin C for moderate selectivity, ratio ≥1; and bin D for low selectivity, ratio <1. […] (nd=not determined).

[4] = molecular target: T9, Ba/F3 cells CD74-ROS1 G2032R (Homo sapiens, UniProt P08922, G2032R); assay: Ba/F3 cell proliferation assay, CD74-ROS1 G2032R; assay type: cell-based; settings: 72 hours, CellTiter-Glo
T9 construct: fusion of the C-terminus of ROS1 with the N-terminus of various partner proteins; host or cells: Ba/F3 (RIKEN), retroviral pMSCV-puro; the other entry of the earlier key: CD74 (P04233, HLA class II histocompatibility antigen gamma chain)
T9 sequence (P08922 1883-2347 G2032R limits assumed): as the sequence (P08922 1883-2347 limits assumed) above, with G150R counted along it
Procedure, shortened: as §4

[5] = molecular target: T10, Ba/F3 cells EML4-ALK wt (variant 1) (Homo sapiens, UniProt Q9UM73); assay: Ba/F3 cell proliferation assay, EML4-ALK wt (variant 1); assay type: cell-based; settings: 72 hours, CellTiter-Glo
T10 construct: echinoderm microtubule-associated protein-like 4 (EML4) gene and the ALK tyrosine kinase domain; host or cells: Ba/F3 (RIKEN), retroviral pMSCV-puro; the other entry of the earlier key: EML4 (Q9HC35, Echinoderm microtubule-associated protein-like 4)
T10 sequence (Q9UM73 with tags, fused parts or gaps): as the sequence (Q9UM73 with tags, fused parts or gaps L1196M/G1202R) above, with M635L, R641G counted along it
Procedure, shortened: as §2

T1 sequence (P08922 1945-2222 limits assumed): as the sequence (P08922 1945-2222 G2032R limits assumed) above, with R88G counted along it

Compound | Ki (ROS1-wt) [nM] | IC50 (Ba/F3 cells TPM3-TRKA) [nM] | Ki (TRKA-wt) [nM] | IC50 [1] [nM] | Ki (ROS1-G2032R) [nM] | Ki (ALK L1196M/G1202R) [nM] | IC50 [2] [nM] | Ki (ALK-wt) [nM] | TPM3-NTRK1-wt/CD74-ROS1-G2032R selectivity ratio [3] | TPM3-NTRK1-wt/CD74-ROS1-wt selectivity ratio [3] | TPM3-NTRK1-wt/EML4-ALK-L1196M-G1202R selectivity ratio [3] | TPM3-NTRK1-wt/EML4-ALK-wt selectivity ratio [3] | IC50 [4] [nM] | IC50 [5] [nM]
C[C@H]1Oc2cc(cnc2N)-c2c(cnn2CC2CC2)Cn2ncnc2-c2ccc(F)cc21 [Example 70, (19R)-3-(cyclopropylmethyl)-16-fluoro-19-methyl-20-oxa-3,4,8,9,11,23-hexaazapentacyclo[19.3.1.0^2,^6.0^8,^12.0^13,^18]pentacosa-1(24),2(6),4,9,11,13,15,17,21(25),22-decaen-22-amine] | < 50 | > 500 | > 500 | 0.1 to 50 | < 50 | < 50 | 50 to 500 | < 50 | A (bin A for very high selectivity, ratio >30-fold) | A (bin A for very high selectivity, ratio >30-fold) | A (bin A for very high selectivity, ratio >30-fold) | A (bin A for very high selectivity, ratio >30-fold) | 0.1 to 50 | 0.1 to 50
CCc1noc2c1-c1cnc(N)c(c1)O[C@H](C)c1cc(F)ccc1-c1ncnn1C2 [Example 50, (19R)-3-ethyl-16-fluoro-19-methyl-5,20-dioxa-4,8,9,11,23-pentaazapentacyclo[19.3.1.0^2,^6.0^8,^12.0^13,^18]pentacosa-1(24),2(6),3,9,11,13,15,17,21(25),22-decaen-22-amine] | < 50 | > 500 | 50 to 500 | 0.1 to 50 | 50 to 500 | < 50 | 50 to 500 | < 50 | B (bin B for high selectivity, ratio >10-fold) | A (bin A for very high selectivity, ratio >30-fold) | C (bin C for moderate selectivity, ratio ≥1) | A (bin A for very high selectivity, ratio >30-fold) | 0.1 to 50 | 0.1 to 50
Cc1nc2n(n1)Cc1cnn(CC3CC3)c1-c1cnc(N)c(c1)O[C@H](C)c1cc(F)ccc1-2 [Example 75, (19R)-3-(cyclopropylmethyl)-16-fluoro-10,19-dimethyl-20-oxa-3,4,8,9,11,23-hexaazapentacyclo[19.3.10^2,^6.0^8,^12.0^13,^18]pentacosa-1(24),2(6),4,9,11,13,15,17,21(25),22-decaen-22-amine] | < 50 | 50 to 500 | 50 to 500 | 0.1 to 50 | < 50 | < 50 | 0.1 to 50 | < 50 | A (bin A for very high selectivity, ratio >30-fold) | A (bin A for very high selectivity, ratio >30-fold) | B (bin B for high selectivity, ratio >10-fold) | A (bin A for very high selectivity, ratio >30-fold) | 0.1 to 50 | 0.1 to 50
